Source: patent publication US12448391B2, “Bicyclic derivatives for treating endoparasites” (Elanco Tiergesundheit AG, priority 2019, dated 2025)

Assays:
D. immitis microfilariae = assay: Dog heart worm microfilariae motility assay; format: cell-based; settings: Dirofilaria immitis, read-out: EC50 (motility inhibition)
Caenorhabditis elegans = assay: C. elegans development assay (Ce DA); settings: 48 h, read-out: EC90 (motility reduction)
Protocol: Caenorhabditis elegans (Ce): C. elegans development assay (Ce DA) measures the effect of compounds on developing nematodes. Eggs of C. elegans are deposited in a 384 well plate together with food (E. coli) and the treatment formulated in DMSO. Plates are incubated at 25° C. for 48 h to allow the development of nematodes up to the L4-stage. The effect of compounds is measured as motility reduction. Efficacy is expressed in % motility reduction compared to negative controls.

H. contortus larvae = assay: H. contortus Larval Development Assay (Hc LDA); settings: Haemonchus contortus, read-out: EC50 (motility inhibition)
Protocol: Ruminant Gastrointestinal (H. contortus Larval Development Assay (Hc LDA)):
H.c. eggs isolated from lamb fecal matter are allowed to hatch overnight. Test compounds are diluted in DMSO and added to a 96-well plate containing appropriate media. H.c. larvae are added to each well and plates are incubated for the desired time(s). Motility is assessed using an LCD camera imaging system. Percent motility inhibition values are generated relative to the average of the DMSO-only wells.

Compound	EC50 (D. immitis microfilariae) [µg/mL]	EC90 (Caenorhabditis elegans) [µg/mL]	EC50 (H. contortus larvae) [µg/mL]
O=C(NN1CCOc2ccccc21)c1cnc2c(-c3cc(Cl)c(F)c(Cl)c3F)cccc2c1N1CCOCC1 [Example 5.23, 8-(3,5-dichloro-2,4-difluoro-phenyl)-N-(2,3-dihydro-1,4-benzoxazin-4-yl)-4-morpholino-quinoline-3-carboxamide]	< 0.1	< 1	< 1
CN(C)c1c(C(=O)NN2CCOc3ccccc32)cnc2c(-c3cc(Cl)c(F)c(Cl)c3F)c(F)ccc12 [Example 5.56, 8-(3,5-dichloro-2,4-difluoro-phenyl)-N-(2,3-dihydro-1,4-benzoxazin-4-yl)-4-(dimethylamino)-7-fluoro-quinoline-3-carboxamide]	–	< 1	–
O=C(NN1CCOc2ccccc21)c1cnc2c(-c3c(F)c(F)cc(F)c3F)cccc2c1N1CCOCC1 [Example 5.57, N-(2,3-dihydro-1,4-benzoxazin-4-yl)-4-morpholino-8-(2,3,5,6-tetrafluorophenyl)quinoline-3-carboxamide]	–	< 1	–
O=C(NN1CCOc2ccccc21)c1cnc2c(-c3cc(Cl)c(F)c(Cl)c3F)c(F)ccc2c1C1CC1 [Example 5.58, 4-cyclopropyl-8-(3,5-dichloro-2,4-difluoro-phenyl)-N-(2,3-dihydro-1,4-benzoxazin-4-yl)-7-fluoro-quinoline-3-carboxamide]	–	< 1	–
O=C(NN1CCOc2ccccc21)c1cnc2c(-c3cc(C(F)(F)F)cc(C(F)(F)F)c3)c(F)ccc2c1N1CCOCC1 [Example 5.59, 8-[3,5-bis(trifluoromethyl)phenyl]-N-(2,3-dihydro-1,4-benzoxazin-4-yl)-7-fluoro-4-morpholino-quinoline-3-carboxamide]	–	< 1	–
O=C(NN1CCOc2ccccc21)c1cnc2c(-c3cc(Cl)cc(F)c3F)c(F)ccc2c1N1CCOCC1 [Example 5.60, 8-(5-chloro-2,3-difluoro-phenyl)-N-(2,3-dihydro-1,4-benzoxazin-4-yl)-7-fluoro-4-morpholino-quinoline-3-carboxamide]	–	< 1	–
O=C(NN1CCOc2ccccc21)c1cnc2c(-c3cc(Cl)cc(C(F)(F)F)c3)c(F)ccc2c1N1CCOCC1 [Example 5.61, 8-[3-chloro-5-(trifluoromethyl)phenyl]-N-(2,3-dihydro-1,4-benzoxazin-4-yl)-7-fluoro-4-morpholino-quinoline-3-carboxamide]	–	< 1	–
CON(C)c1c(C(=O)NN2CCOc3ccccc32)cnc2c(-c3cc(Cl)c(F)c(Cl)c3F)c(F)ccc12 [Example 5.62, 8-(3,5-dichloro-2,4-difluoro-phenyl)-N-(2,3-dihydro-1,4-benzoxazin-4-yl)-7-fluoro-4-[methoxy(methyl)amino]quinoline-3-carboxamide]	–	< 1	–
O=C(NN1CCOc2ccccc21)c1cnc2c(-c3ccc(C(F)(F)F)cc3)cccc2c1N1CCOCC1 [Example 5.63, N-(2,3-dihydro-1,4-benzoxazin-4-yl)-4-morpholino-8-[4-(trifluoromethyl)phenyl]quinoline-3-carboxamide]	–	< 1	–
